Experimental data taken from ChEMBL document CHEMBL1152338, “Discorhabdins revisited: cytotoxic alkaloids from southern australian marine sponges of the genera Higginsia and Spongosorites” (J Nat Prod, 2009).

Columns and labels:
Assay type in all cases: functional, cell-based
[1] = tested on: A549; assay: Cytotoxicity against human A549 cells
[2] = tested on: MDA-MB-231; assay: Cytotoxicity against human MDA-MB-231 cells
[3] = tested on: HT-29; assay: Cytotoxicity against human HT-29 cells

Measured: IC50

O=C1C2=C3C4=[N+](CCc5c[nH]c1c54)[C@@H]1[C@H](O)C=C4S[C@@H](C[C@@]43[C@H]1O)N2
0.1 µg/mL: [1] | [2] | [3]

O=C1C2=C(C3=NCCc4c[nH]c1c43)[C@]13C=C(Br)[C@@H](O)C[C@H]1S[C@@H](C3)N2
0.1 µg/mL: [1] | [2] | [3]

CN1CCc2cn(C)c3c2C1=CC(=O)C3=O [DAMIRONE A]
5 µg/mL: [1] | [2] | [3]

O=C1C[C@H]2S[C@H]3C[C@]2(C=C1Br)C1=C(N3)C(=O)c2[nH]cc3c2C1=NCC3 [DISCORHABDINE A]
0.05 µg/mL: [1] | [2] | [3]

C[N+]1=C2C=C(NCCc3ccc(O)cc3)C(=O)c3[nH]cc(c32)CC1 [MAKALUVAMINE J]
5 µg/mL: [1] | [2] | [3]
